Molecules are shown by their SMILES.

For 8 compounds, IC50 results are on record in US8383822B2, “Substituted oxazolidinones and their use” (Bayer Intellectual Property GmbH, priority 2007, dated 2013).

One assay concerns the target T1, factor Xa (Homo sapiens, UniProt P00742).
T1 construct: tissue Octapharma; host or cells: citrate plasma
The assay is described as follows: biochemical. The conditions noted are these: factor Xa inhibition in citrate plasma (Octapharma), factor X activated by Russel viper venom, ChromozymX substrate, read at about 12 min. Here is the method:
a.4) Determination of the Factor Xa-inhibitory Activity of the Potential Inhibitors in Plasma Samples
To determine the inhibition of factor Xa in plasma samples, the factor X present in plasma is activated by a protease from rattlesnake toxin. The factor Xa activity or its inhibition by potential inhibitors is then measured by addition of a chromogenic substrate.
Various concentrations of the substances to be tested are dissolved in dimethyl sulphoxide and mixed with an aqueous refludan solution (10 μg/ml). In clear 96-well plates having a flat bottom, 30 μl of citrate plasma (Octapharma) are mixed with 10 μl of the substance dilution.

The next assay has as its target thrombin (Homo sapiens, UniProt P00734). The assay is described as follows: Thrombin-inhibitory activity in plasma samples (ecarin, fluorogenic thrombin substrate). The assay is classed as biochemical. The conditions noted are these: thrombin inhibition in citrate plasma (Octapharma), ecarin-stimulated, read at about 12 min. As for the experimental part: a.5) Determination of the Thrombin-inhibitory Activity of the Potential Inhibitors in Plasma Samples
Various concentrations of the substances to be tested are dissolved in dimethyl sulphoxide and diluted with water.

T1 sequence (P00742 235-488 limits assumed): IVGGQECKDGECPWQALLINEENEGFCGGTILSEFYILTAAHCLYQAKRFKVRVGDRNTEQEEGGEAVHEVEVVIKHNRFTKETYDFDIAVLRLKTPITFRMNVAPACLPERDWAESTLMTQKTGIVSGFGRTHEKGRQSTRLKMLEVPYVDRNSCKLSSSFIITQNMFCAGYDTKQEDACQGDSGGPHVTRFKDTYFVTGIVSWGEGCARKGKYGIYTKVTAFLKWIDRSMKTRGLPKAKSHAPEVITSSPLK
T1 sequence (P00742 41-179 limits assumed): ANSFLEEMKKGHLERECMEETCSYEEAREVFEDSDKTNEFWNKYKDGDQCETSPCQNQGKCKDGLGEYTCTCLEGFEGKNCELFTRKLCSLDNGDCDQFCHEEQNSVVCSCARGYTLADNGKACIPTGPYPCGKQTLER

With `COc1cc(N2C[C@H](CNC(=O)c3ccc(Cl)s3)OC2=O)ccc1-n1cccc(CCN[C@H]2CC[C@H](O)CC2)c1=O` [Example 6, 5-Chloro-N-{[(5S)-3-{4-[3-{2-[(trans-4-hydroxycyclohexyl)amino]ethyl}-2-oxopyridin-1(2H)-yl]-3-methoxyphenyl}-2-oxo-1,3-oxazolidin-5-yl]methyl}thiophene-2-carboxamide], the half-maximal inhibitory concentration (IC50) was 31 nM on factor Xa and 143 nM at thrombin.

`COCc1cc(N2C[C@H](CNC(=O)c3ccc(Cl)s3)OC2=O)ccc1-n1cccc(CCNCCO)c1=O` [Example 9, 5-Chloro-N-{[(5S)-3-{4-[3-{2-[(2-hydroxyethyl)amino]ethyl}-2-oxopyridin-1(2H)-yl]-3-(methoxy-methyl)phenyl}-2-oxo-1,3-oxazolidin-5-yl]methyl}thiophene-2-carboxamide]: the IC50 was 11 nM on factor Xa and 10 nM against thrombin.

For `COCc1cc(N2C[C@H](CNC(=O)c3ccc(Cl)s3)OC2=O)ccc1-n1cccc(CCN[C@H]2CC[C@H](O)CC2)c1=O` [Example 10, 5-Chloro-N-{[(5S)-3-{4-[3-{2-[(trans-4-hydroxycyclohexyl)amino]ethyl}-2-oxopyridin-1(2H)-yl]-3-(methoxymethyl)phenyl}-2-oxo-1,3-oxazolidin-5-yl]methyl}thiophene-2-carboxamide], the IC50 against factor Xa worked out at 15 nM; against thrombin it was 24 nM.

As to `COCc1cc(N2C[C@H](CNC(=O)c3ccc(Cl)s3)OC2=O)ccc1-n1cccc(CCN2CCN(C)CC2)c1=O` [Example 13], the figures for the IC50 on factor Xa and on thrombin were 17 nM and 16 nM, respectively.

With `COCc1cc(N2C[C@H](CNC(=O)c3ccc(Cl)s3)OC2=O)ccc1-n1cccc(CCNCCCO)c1=O` [Example 16], the concentration for half-maximal inhibition (IC50) against factor Xa turned out to be 18 nM; against thrombin, 10 nM.

For the compound `Cc1cc(N2C[C@H](CNC(=O)c3ccc(Cl)s3)OC2=O)ccc1-n1cccc(OCCN[C@H]2CC[C@H](O)CC2)c1=O` [Example 21, 5-Chloro-N-{[(5S)-3-{4-[3-{2-[(trans-4-hydroxycyclohexyl)amino]ethoxy}-2-oxopyridin-1(2H)-yl]-3-methylphenyl}-2-oxo-1,3-oxazolidin-5-yl]methyl}thiophene-2-carboxamide], the figures for the IC50 against factor Xa and against thrombin were 11 nM and 34 nM, respectively.

Regarding `CCCc1cc(N2C[C@H](CNC(=O)c3ccc(Cl)s3)OC2=O)ccc1-n1cccc(OCCNCCO)c1=O` [Example 36, 5-Chloro-N-{[(5S)-3-{4-[3-{2-[(2-hydroxyethyl)amino]ethoxy}-2-oxopyridin-1(2H)-yl]-3-propyl-phenyl}-2-oxo-1,3-oxazolidin-5-yl]methyl}thiophene-2-carboxamide], the values for the IC50 at factor Xa and at thrombin were 29 nM and 36 nM, respectively.

Take `Cc1cc(N2C[C@H](CNC(=O)c3ccc(Cl)s3)OC2=O)cc(C)c1-n1cccc(CCNCCO)c1=O` [Example 37, 5-Chloro-N-{[(5S)-3-{4-[3-{2-[(2-hydroxyethyl)amino]ethyl}-2-oxopyridin-1(2H)-yl]-3,5-dimethylphenyl}-2-oxo-1,3-oxazolidin-5-yl]methyl}thiophene-2-carboxamide]: the IC50 against factor Xa was found to be 29 nM; on thrombin, 15 nM.
